Reference: patent publication US20240316007A1, “COMPOSITIONS AND TREATMENTS WITH NIROGACESTAT” (SpringWorks Therapeutics, Inc., priority 0001, published 2024)
Counter-ions that a name gives are not always drawn. Each block holds one compound with its values, some of them ahead of it.

Tests used:
[1] = Pharmacokinetic parameters for single and multiple oral doses of nirogacestat dihydrobromide; type: in vivo
From the text: The pharmacokinetic parameters for single and multiple oral doses of nirogacestat dihydrobromide (PF-03084014) are provided in Table 1 below.

[2] = test system: progressing desmoid tumors; conditions: Phase 2 study, participants with progressing desmoid tumors; cited from earlier work
[3] = Cohort 1: 150 mg, 1 × 150 mg, APERIOD 2, EXDOSE 150, N 10, Geometric Mean
[4] = Cohort 1: 150 mg, 1 × 150 mg, APERIOD 2, EXDOSE 150, N 10, Max
[5] = Cohort 1: 150 mg, 1 × 150 mg, APERIOD 2, EXDOSE 150, N 10, Median
[6] = Cohort 1: 150 mg, 1 × 150 mg, APERIOD 2, EXDOSE 150, N 10, Min
[7] = Cohort 1: 150 mg, 3 × 50 mg, APERIOD 1, EXDOSE 150, N 10, Max
[8] = Cohort 1: 150 mg, 3 × 50 mg, APERIOD 1, EXDOSE 150, N 10, Min
[9] = Cohort 2: 100 mg, APERIOD 1, EXDOSE 100, N 8, Geometric Mean
[10] = Cohort 2: 100 mg, APERIOD 1, EXDOSE 100, N 8, Max
[11] = Cohort 2: 100 mg, APERIOD 1, EXDOSE 100, N 8, Median
[12] = Cohort 2: 100 mg, APERIOD 1, EXDOSE 100, N 8, Min
[13] = Cohort 3: 50 mg, APERIOD 1, EXDOSE 50.0, N 8, Max
[14] = Cohort 3: 50 mg, APERIOD 1, EXDOSE 50.0, N 8, Median
[15] = Cohort 3: 50 mg, APERIOD 1, EXDOSE 50.0, N 8, Min

AUCinf [1, 3]: 3020 ng·h/mL | AUClast [1, 3]: 2930 ng·h/mL | CL/F [1, 3]: 49.7 L/h | Cmax [1, 3]: 686 ng/mL | Half-life [1, 3]: 24.7 h | AUCinf [1, 4]: 5880 ng·h/mL | AUClast [1, 4]: 5720 ng·h/mL | CL/F [1, 4]: 82.0 L/h | Cmax [1, 4]: 1200 ng/mL | Half-life [1, 4]: 34.7 h | Tmax [1, 4]: 1.52 h | AUCinf [1, 5]: 3100 ng·h/mL | AUClast [1, 5]: 3040 ng·h/mL | CL/F [1, 5]: 48.4 L/h | Tmax [1, 5]: 1.50 h | AUCinf [1, 6]: 1830 ng·h/mL | AUClast [1, 6]: 1790 ng·h/mL | CL/F [1, 6]: 25.5 L/h | Cmax [1, 6]: 456 ng/mL | Half-life [1, 6]: 13.3 h | Tmax [1, 6]: 0.500 h | CL/F ([1]; Cohort 1: 150 mg, 3 × 50 mg, APERIOD 1, EXDOSE 150, N 10, Geometric Mean): 49.2 L/h | AUCinf [1, 7]: 4870 ng·h/mL | AUClast [1, 7]: 4660 ng·h/mL | CL/F [1, 7]: 69.5 L/h | Cmax [1, 7]: 1120 ng/mL | Half-life [1, 7]: 32.0 h | Tmax [1, 7]: 2.00 h | CL/F ([1]; Cohort 1: 150 mg, 3 × 50 mg, APERIOD 1, EXDOSE 150, N 10, Median): 57.0 L/h | AUCinf [1, 8]: 2160 ng·h/mL | AUClast [1, 8]: 2080 ng·h/mL | CL/F [1, 8]: 30.8 L/h | Cmax [1, 8]: 547 ng/mL | Half-life [1, 8]: 18.1 h | AUCinf [1, 9]: 1780 ng·h/mL | AUClast [1, 9]: 1720 ng·h/mL | CL/F [1, 9]: 56.1 L/h | Cmax [1, 9]: 435 ng/mL | Half-life [1, 9]: 25.2 h | Tmax [1, 9]: 1.19 h | AUCinf [1, 10]: 3940 ng·h/mL | AUClast [1, 10]: 3710 ng·h/mL | CL/F [1, 10]: 124 L/h | Cmax [1, 10]: 654 ng/mL | Half-life [1, 10]: 34.6 h | Tmax [1, 10]: 2.00 h | CL/F [1, 11]: 58.4 L/h | Half-life [1, 11]: 24.4 h | AUCinf [1, 12]: 805 ng·h/mL | AUClast [1, 12]: 777 ng·h/mL | CL/F [1, 12]: 25.4 L/h | Cmax [1, 12]: 259 ng/mL | Half-life [1, 12]: 19.7 h | Tmax [1, 12]: 0.500 h | CL/F ([1]; Cohort 3: 50 mg, APERIOD 1, EXDOSE 50.0, N 8, Geometric Mean): 87.6 L/h | AUCinf [1, 13]: 2140 ng·h/mL | AUClast [1, 13]: 2120 ng·h/mL | CL/F [1, 13]: 660 L/h | Cmax [1, 13]: 507 ng/mL | Half-life [1, 13]: 32.8 h | Tmax [1, 13]: 1.52 h | CL/F [1, 14]: 74.9 L/h | Half-life [1, 14]: 23.3 h | AUCinf [1, 15]: 75.7 ng·h/mL | AUClast [1, 15]: 71.6 ng·h/mL | CL/F [1, 15]: 23.4 L/h | Cmax [1, 15]: 49.6 ng/mL | Half-life [1, 15]: 4.24 h | Tmax [1, 15]: 0.500 h
Compound: CCC[C@H](N[C@H]1CCc2cc(F)cc(F)c2C1)C(=O)Nc1cn(C(C)(C)CNCC(C)(C)C)cn1 [nirogacestat dihydrobromide, (S)-2-(((S)-6,8-difluoro-1,2,3,4-tetrahydronaphthalen-2-yl)amino)-N-(1-(2-methyl-1-(neopentylamino)propan-2-yl)-1H-imidazol-4-yl)pentanamide]

Compound: CCC[C@H](N[C@H]1CCc2cc(F)cc(F)c2C1)C(=O)Nc1cn(C(C)(C)CNCC(C)(C)C)cn1 [nirogacestat, (S)-2-(((S)-6,8-difluoro-1,2,3,4-tetrahydronaphthalen-2-yl)amino)-N-(1-(2-methyl-1-(neopentylamino)propan-2-yl)-1H-imidazol-4-yl)pentanamide]
participants progressing while on therapy [2]: no participants progressing while on therapy | response rate [2]: 29% | tumor shrinkage as measured by magnetic resonance imaging (MRI) [2]: significant tumor shrinkage
